Source: ChEMBL document CHEMBL5113380, “Functionalized quinoxalinones as privileged structures with broad-ranging pharmacological activities” (Eur J Med Chem, 2022)
One block for each molecule: values may come before it.

Tests used:
[1] = biological target: T1, Glutamate receptor ionotropic AMPA (Homo sapiens, UniProt P42261+P42262+P42263+P48058); test: Displacement of [3H]AMPA from AMPA receptor (unknown origin); type: protein-complex assay
[2] = Inhibition of KA-induced cytotoxicity in human hippocampal cell culture; type: toxicity, cell-based; details: Hippocampal neurone
[3] = Displacement of [3H]glycine from AMPA receptor (unknown origin); type: protein-complex assay, Homo sapiens
[4] = biological target: T1, Glutamate receptor ionotropic AMPA; test: Displacement of [3H]kainic acid from AMPA receptor (unknown origin); type: protein-complex assay
[5] = biological target: T1, Glutamate receptor ionotropic AMPA; test: Antagonist activity at AMPA receptor (unknown origin) assessed as AMPA-induced depolarizations; type: protein-complex assay
[6] = biological target: Glutamate [NMDA] receptor; test: Antagonist activity at NMDA receptor (unknown origin) assessed as NMDA-induced depolarizations; type: protein-complex assay, Homo sapiens
[7] = Displacement of [3H]AMPA from NMDA receptor (unknown origin); type: protein-complex assay, Homo sapiens
[8] = biological target: Glutamate [NMDA] receptor; test: Displacement of [3H]MDL from NMDA receptor (unknown origin); type: protein-complex assay, Homo sapiens
[9] = biological target: Vascular endothelial growth factor receptor 2 (Homo sapiens, UniProt P35968); test: Inhibition of VEGFR2 (unknown origin) at 1 uM relative to control
Chain of Vascular endothelial growth factor receptor 2 (P35968 whole entry): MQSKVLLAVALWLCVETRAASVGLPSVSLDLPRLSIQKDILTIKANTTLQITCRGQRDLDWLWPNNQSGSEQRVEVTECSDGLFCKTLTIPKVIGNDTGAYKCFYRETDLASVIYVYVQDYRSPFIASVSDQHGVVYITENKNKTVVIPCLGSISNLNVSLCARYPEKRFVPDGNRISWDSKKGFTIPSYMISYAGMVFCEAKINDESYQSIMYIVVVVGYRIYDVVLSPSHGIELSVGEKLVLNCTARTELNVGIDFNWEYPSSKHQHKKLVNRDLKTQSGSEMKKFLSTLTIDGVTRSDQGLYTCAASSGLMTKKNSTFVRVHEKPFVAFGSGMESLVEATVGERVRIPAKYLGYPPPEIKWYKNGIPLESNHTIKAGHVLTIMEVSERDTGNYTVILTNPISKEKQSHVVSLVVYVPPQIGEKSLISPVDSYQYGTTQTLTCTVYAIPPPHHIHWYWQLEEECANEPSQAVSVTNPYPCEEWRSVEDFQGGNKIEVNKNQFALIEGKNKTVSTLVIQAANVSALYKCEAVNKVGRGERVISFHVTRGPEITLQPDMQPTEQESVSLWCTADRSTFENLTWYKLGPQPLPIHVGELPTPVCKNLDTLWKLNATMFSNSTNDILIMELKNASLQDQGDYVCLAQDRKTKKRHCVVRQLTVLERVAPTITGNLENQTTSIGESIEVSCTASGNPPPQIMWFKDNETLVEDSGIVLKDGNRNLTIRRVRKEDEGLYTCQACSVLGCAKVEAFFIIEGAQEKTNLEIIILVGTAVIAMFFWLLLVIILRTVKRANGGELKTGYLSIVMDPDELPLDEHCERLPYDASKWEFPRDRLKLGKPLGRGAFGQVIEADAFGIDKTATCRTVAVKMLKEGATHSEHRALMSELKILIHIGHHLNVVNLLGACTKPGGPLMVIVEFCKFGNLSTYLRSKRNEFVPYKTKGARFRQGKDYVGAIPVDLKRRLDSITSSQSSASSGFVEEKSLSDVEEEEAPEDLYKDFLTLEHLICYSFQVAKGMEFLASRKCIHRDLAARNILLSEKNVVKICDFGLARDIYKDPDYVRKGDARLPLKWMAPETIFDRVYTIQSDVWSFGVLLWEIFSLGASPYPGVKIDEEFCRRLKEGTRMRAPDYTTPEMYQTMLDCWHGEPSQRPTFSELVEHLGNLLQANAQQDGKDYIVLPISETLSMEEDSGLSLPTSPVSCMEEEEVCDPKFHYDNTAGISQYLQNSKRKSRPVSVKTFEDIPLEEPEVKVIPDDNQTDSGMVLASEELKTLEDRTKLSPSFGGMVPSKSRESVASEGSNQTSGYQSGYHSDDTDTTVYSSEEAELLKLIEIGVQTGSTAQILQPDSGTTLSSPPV

[10] = test system: MCF7; test: Antiproliferative activity against human MCF7 cells; type: functional, cell-based
[11] = Antiproliferative activity against human 3AO cells; type: functional, cell-based
[12] = test system: PC-3; test: Antiproliferative activity against human PC-3 cells; type: functional, cell-based
[13] = test system: K562; test: Antiproliferative activity against human K562 cells; type: functional, cell-based
[14] = test system: HeLa; test: Antiproliferative activity against human HeLa cells; type: functional, cell-based
[15] = test system: BEAS-2B; test: Antiproliferative activity against human BEAS-2B cells; type: functional, cell-based
[16] = biological target: T1, Glutamate receptor ionotropic AMPA; test: Displacement of [3H]CNQX from AMPA receptor (unknown origin); type: protein-complex assay
[17] = biological target: Bromodomain-containing protein 4 (Homo sapiens, UniProt O60885); test: Inhibition of BRD4 (unknown origin) using histone-H4 as substrate incubated for 15 mins and measured after 1 hr by AlphaScreen assay
[18] = biological target: Glutamate [NMDA] receptor; test: Displacement of [3H]MK-801 from NMDA receptor (unknown origin); type: protein-complex assay, Homo sapiens
[19] = test system: HepG2; test: Antiproliferative activity against human HepG2 cells; type: functional, cell-based
[20] = biological target: Epidermal growth factor receptor (Homo sapiens, UniProt P00533); test: Inhibition of wild-type EGFR (unknown origin)
Chain of Epidermal growth factor receptor (Homo sapiens, UniProt P00533) (P00533 whole entry): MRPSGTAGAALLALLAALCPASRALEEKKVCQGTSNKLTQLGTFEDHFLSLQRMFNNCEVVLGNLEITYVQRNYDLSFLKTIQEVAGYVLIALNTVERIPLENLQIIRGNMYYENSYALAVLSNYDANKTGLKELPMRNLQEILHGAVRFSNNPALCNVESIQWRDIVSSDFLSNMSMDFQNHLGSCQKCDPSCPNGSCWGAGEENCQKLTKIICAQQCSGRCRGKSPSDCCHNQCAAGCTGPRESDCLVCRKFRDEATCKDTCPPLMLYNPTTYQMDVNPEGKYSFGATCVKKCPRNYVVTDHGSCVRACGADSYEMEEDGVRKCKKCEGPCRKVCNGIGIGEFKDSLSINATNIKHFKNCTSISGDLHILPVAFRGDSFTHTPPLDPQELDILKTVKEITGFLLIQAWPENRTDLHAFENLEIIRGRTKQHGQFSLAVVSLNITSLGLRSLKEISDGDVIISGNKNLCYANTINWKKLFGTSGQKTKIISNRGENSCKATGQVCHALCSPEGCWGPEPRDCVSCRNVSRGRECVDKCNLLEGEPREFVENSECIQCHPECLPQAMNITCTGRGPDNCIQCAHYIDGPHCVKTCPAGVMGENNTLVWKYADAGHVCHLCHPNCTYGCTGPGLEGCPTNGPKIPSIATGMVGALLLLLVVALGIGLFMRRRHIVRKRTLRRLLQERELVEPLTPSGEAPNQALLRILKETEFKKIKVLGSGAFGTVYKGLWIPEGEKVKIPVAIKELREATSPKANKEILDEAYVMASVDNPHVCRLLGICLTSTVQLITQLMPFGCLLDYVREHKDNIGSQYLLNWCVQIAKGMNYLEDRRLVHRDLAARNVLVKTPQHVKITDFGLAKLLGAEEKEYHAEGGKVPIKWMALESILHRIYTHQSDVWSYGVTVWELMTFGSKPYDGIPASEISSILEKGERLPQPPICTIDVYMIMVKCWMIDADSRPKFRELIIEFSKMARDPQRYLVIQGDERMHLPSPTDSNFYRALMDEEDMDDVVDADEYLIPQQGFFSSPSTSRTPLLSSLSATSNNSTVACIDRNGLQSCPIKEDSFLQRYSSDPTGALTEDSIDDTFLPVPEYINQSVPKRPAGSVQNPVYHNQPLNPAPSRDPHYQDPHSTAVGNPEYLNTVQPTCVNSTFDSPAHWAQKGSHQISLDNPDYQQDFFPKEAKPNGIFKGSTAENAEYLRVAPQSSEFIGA

[21] = biological target: Epidermal growth factor receptor (Homo sapiens, UniProt P00533, L858R); test: Inhibition of EGFR L858R mutant (unknown origin)
Chain of Epidermal growth factor receptor (Homo sapiens, UniProt P00533, L858R) (P00533 25-1210 L858R limits assumed): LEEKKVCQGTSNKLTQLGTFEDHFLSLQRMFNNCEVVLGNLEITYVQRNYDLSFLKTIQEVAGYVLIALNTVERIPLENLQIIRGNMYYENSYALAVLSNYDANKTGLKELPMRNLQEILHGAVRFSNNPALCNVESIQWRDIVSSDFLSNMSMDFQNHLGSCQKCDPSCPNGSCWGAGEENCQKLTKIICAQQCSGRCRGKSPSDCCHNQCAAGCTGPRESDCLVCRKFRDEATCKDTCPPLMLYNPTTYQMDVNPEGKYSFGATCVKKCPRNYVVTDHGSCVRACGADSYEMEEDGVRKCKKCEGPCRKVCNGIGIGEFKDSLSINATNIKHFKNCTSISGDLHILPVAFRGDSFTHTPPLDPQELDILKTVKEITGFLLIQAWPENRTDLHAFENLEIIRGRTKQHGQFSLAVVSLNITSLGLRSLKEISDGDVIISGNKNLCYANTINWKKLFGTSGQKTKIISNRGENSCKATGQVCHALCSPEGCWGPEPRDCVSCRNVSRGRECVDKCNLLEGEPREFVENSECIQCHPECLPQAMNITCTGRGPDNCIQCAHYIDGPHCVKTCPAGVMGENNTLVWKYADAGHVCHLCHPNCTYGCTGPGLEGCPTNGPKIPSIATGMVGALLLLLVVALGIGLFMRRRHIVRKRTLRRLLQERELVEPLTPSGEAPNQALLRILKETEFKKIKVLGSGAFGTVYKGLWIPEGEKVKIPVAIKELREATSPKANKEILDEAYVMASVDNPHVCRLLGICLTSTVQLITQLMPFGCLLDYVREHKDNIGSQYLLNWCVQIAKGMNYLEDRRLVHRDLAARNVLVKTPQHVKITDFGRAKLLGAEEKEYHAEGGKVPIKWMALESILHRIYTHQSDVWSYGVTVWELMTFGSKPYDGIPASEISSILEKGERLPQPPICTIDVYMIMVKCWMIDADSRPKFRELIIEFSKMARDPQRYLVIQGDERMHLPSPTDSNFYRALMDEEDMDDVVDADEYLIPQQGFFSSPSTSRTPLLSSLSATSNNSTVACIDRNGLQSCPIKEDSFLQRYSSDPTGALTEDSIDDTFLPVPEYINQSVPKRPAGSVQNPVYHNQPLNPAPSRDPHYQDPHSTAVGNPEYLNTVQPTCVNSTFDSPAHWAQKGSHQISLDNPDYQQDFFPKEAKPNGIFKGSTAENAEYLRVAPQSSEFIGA

[22] = test system: HCT-116; test: Antiproliferative activity against human HCT-116 cells; type: functional, cell-based
[23] = test system: WI-38; test: Antiproliferative activity against human WI-38 cells; type: functional, cell-based

IC50 [7]: 11.3 µM
IC50 [8]: 0.01 µM
SMILES: O=C(Cc1ccsc1)NCc1cc(Br)cc2nc(O)c(O)nc12

IC50 [1]: 11 µM
IC50 [16]: 4 µM
IC50 [4]: 54 µM
SMILES: Cc1cc2[nH]c(=O)c(=O)[nH]c2cc1C=O

IC50 [7]: 2 µM
IC50 [8]: 0.01 µM
SMILES: O=C(NCc1cc(Br)cc2[nH]c(=O)c(=O)[nH]c12)c1ccsc1

IC50 [10]: 16.9 µM
IC50 [19]: 18.6 µM
IC50 [20]: 1.55 µM
IC50 [21]: 0.0873 µM
IC50 [22]: 28.4 µM
SMILES: NNC(=O)/C=C1/Nc2ccc(Br)cc2NC1=O
IC50 [23]: 227 µM

IC50 [10]: 17.9 µM
IC50 [19]: 15.6 µM
IC50 [20]: 0.957 µM
IC50 [21]: 0.0754 µM
IC50 [22]: 13.8 µM
SMILES: COC(=O)CCc1nc2ccc(Br)cc2[nH]c1=O
IC50 [23]: 142 µM

IC50 [1]: 0.93 µM
IC50 [16]: 1.4 µM
IC50 [4]: 2.2 µM
SMILES: O=c1[nH]c2cc([N+](=O)[O-])c([N+](=O)[O-])cc2[nH]c1=O [DNQX]

IC50 [1]: 9.3 µM
IC50 [16]: 9.2 µM
IC50 [4]: > 100 µM
SMILES: O=c1[nH]c2cc(CO)c(CO)cc2[nH]c1=O

IC50 [7]: 1.6 µM
IC50 [8]: 0.01 µM
SMILES: O=C(NCc1cc(Br)cc2nc(O)c(O)nc12)c1cccs1

IC50 [10]: 23.3 µM
IC50 [19]: 46.2 µM
IC50 [20]: 1.34 µM
IC50 [21]: 0.0828 µM
IC50 [22]: 31.6 µM
SMILES: COC(=O)CCc1nc2ccc(Cl)cc2[nH]c1=O
IC50 [23]: 242 µM

inhibition [9]: 6%
IC50 [10]: 49 µM
IC50 [12]: 59.9 µM
IC50 [13]: > 100 µM
IC50 [14]: > 100 µM
SMILES: O=C(Cn1c(=O)c(/C=C/c2ccncc2)nc2ccccc21)Nc1ccc(F)cc1
IC50 [11]: > 100 µM
IC50 [15]: > 100 µM

Further lines, the molecule ahead of its results:

SMILES: CCc1cnc2c(=O)[nH]c3cc([N+](=O)[O-])c(-n4ccnc4)nc3n12
Ki [1]: 0.02 µM
IC50 [2]: 0.3 µM

SMILES: O=C(O)c1nc2c(=O)[nH]c3cc(Cl)c(-n4cnnc4)cc3n2n1 [TQX-173]
Ki [1]: 0.14 µM
Ki [3]: 33.5 µM
IC50 [4]: 11.6 µM
IC50 [5]: 2.3 µM
IC50 [6]: 46 µM

SMILES: O=C(Cn1c(=O)c(/C=C/c2ccncc2)nc2ccccc21)Nc1ccc(Cl)c(Cl)c1
inhibition [9]: 56%
IC50 [10]: 47.6 µM
IC50 [11]: > 100 µM
IC50 [12]: > 100 µM
IC50 [13]: > 100 µM
IC50 [14]: > 100 µM
IC50 [15]: > 100 µM

SMILES: Cc1noc(C)c1-c1ccc2c(c1)C(Cc1ccccc1)NC(=O)N2C (stereo not drawn)
IC50 [17]: 0.032 µM

SMILES: O=c1[nH]c2cc(C(F)(F)F)c(-n3ccnc3)nc2n2ccnc12
Ki [1]: 0.066 µM
IC50 [2]: 0.32 µM

SMILES: O=C(O)c1nc2c(O)nc3cc(Cl)c(-n4cccc4)cc3n2n1
Ki [1]: 0.86 µM
Ki [3]: 0.86 µM
IC50 [4]: 36 µM
IC50 [18]: 11.7 µM
IC50 [5]: 3 µM
IC50 [6]: 52 µM

SMILES: O=Cc1ccn(-c2cc3c(cc2Cl)nc(O)c2nc(C(=O)O)nn23)c1
Ki [1]: 0.53 µM
Ki [3]: 28 µM
IC50 [4]: 8.9 µM
IC50 [18]: 43 µM
IC50 [5]: 1.2 µM
IC50 [6]: 23 µM

SMILES: O=C(Cn1c(=O)c(/C=C/c2ccncc2)nc2ccccc21)Nc1ccc(Cl)cc1
inhibition [9]: 44%
IC50 [10]: > 100 µM
IC50 [11]: > 100 µM
IC50 [12]: > 100 µM
IC50 [13]: 50.4 µM
IC50 [14]: > 100 µM
IC50 [15]: > 100 µM

SMILES: O=c1[nH]c2cc([N+](=O)[O-])c(-n3ccnc3)nc2n2ccnc12
Ki [1]: 0.057 µM
IC50 [2]: 0.3 µM
